The values below come from publication PMC5884906, “Single Administration of HBK-15—a Triple 5-HT1A, 5-HT7, and 5-HT3 Receptor Antagonist—Reverses Depressive-Like Behaviors in Mouse Model of Depression Induced by Corticosterone” (Molecular Neurobiology, 2017).

Several values for one entry are separate records, joined by “and”; a condition that tells them apart may be missing. Equal entries are not always repeated. Where two headings read alike, the source gives them in different places.

For data set [1], the system named is corticosterone-treated mice. Kind of data set: forced swim test, chronic administration, corticosterone model. Format: in vivo. As to conditions: for effect on corticosterone-induced increase in immobility: 21 days. The method, then: The dose and route of administration of corticosterone was based on studies performed by Zhao and colleagues. Thirty minutes before, corticosterone injection mice were given (i.p.) saline, HBK-14 (1.25 or 2.5 mg/kg), HBK-15 (0.625 or 1.25 mg/kg), or fluoxetine (10 mg/kg) (Fig. 1b). Control mice received (i.p.) saline and 30 min later saline containing 0.1% dimethyl sulfoxide (DMSO) and 0.1% Tween-80 (s.c.). The experimental groups consisted of eight randomly selected animals. After the end of the procedure, animals were tested in the sucrose preference test, forced swim test, elevated plus maze test, and spontaneous locomotor activity test. Following behavioral testing, rodents were scarified and their hippocampi collected for biochemical analysis. Forced swim test was performed according to the method described by Porsolt and colleagues and previously described. Mice were placed individually for 6 min in glass cylinders (height 25 cm, diameter 10 cm) containing […] (23–25 °C). The total time of immobility was recorded during the final 4 min of the test. The experiments were recorded and scored using aLab.io software by a trained observer blind to the treatments.

For data set [2], the system named is corticosterone-treated mice. Kind of data set: spontaneous locomotor activity, single administration. Format: in vivo. As to conditions: 4 min. On the procedure: Mice were injected with corticosterone (s.c., 20 mg/kg) at random times during the light phase for consecutive 21 days (Fig. 1c). The dose and route of administration of corticosterone were based on studies performed by Zhao and colleagues. […] Control mice received (i.p.) saline. The experimental groups consisted of eight randomly selected animals. We chose the dose of HBK-15 that was active in the chronic experiments (i.e., 1.25 mg/kg). The dose of ketamine was based on the studies performed by Pazini and colleagues. Animals were tested in the forced swim test and spontaneous locomotor activity test. After behavioral testing, mice were scarified and their hippocampi collected for biochemical analysis.
The locomotor activity was performed as previously described. Locomotor activity was recorded individually for each mouse using activity cages made of clear Perspex (40 cm × 40 cm × 31 cm, Activity Cage 7441, Ugo Basile, Italy). The cages were supplied with I.R. horizontal beam emitters connected to a counter for the recording of light-beam interruptions. Each mouse was placed in a cage for a 30-min habituation period. After that time, the number of crossings of photobeams was measured for 6 min (chronic studies) or for 4 min (acute experiments; i.e., the time equal to the observation period in the forced swim test). The cages were disinfected with 70% ethanol after each mouse.

The target of data set [3] is serotonin 5-HT1A receptor. The arrangement: method as in PMID 26554929. As to conditions: previous experiments; read-out: 5-HT1A receptor antagonist IC50; cited from earlier work.
For data set [4] the following is noted: cited from earlier work.
Data set [5] deals with T1, 5-HT3 receptors expressed in guinea pig ileum (Cavia porcellus, UniProt O70212).
T1 construct: A segment (15 cm) of male guinea pig ileum was excised from the small intestine; from tissue; host or cells: isolated male guinea pig ileum segments in an organ bath
T1 sequence (O70212 20-490): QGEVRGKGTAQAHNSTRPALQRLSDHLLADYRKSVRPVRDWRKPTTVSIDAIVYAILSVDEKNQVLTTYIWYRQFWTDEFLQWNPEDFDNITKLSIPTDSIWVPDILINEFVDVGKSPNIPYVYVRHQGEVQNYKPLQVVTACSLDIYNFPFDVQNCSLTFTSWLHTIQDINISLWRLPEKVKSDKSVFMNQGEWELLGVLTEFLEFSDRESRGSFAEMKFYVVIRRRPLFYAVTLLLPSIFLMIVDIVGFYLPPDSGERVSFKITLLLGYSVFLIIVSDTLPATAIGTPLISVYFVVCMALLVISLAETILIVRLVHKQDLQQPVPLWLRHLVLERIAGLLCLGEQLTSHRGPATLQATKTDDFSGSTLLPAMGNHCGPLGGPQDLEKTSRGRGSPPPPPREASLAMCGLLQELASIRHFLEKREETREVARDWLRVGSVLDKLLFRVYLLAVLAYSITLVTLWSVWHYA
Kind of data set: guinea pig ileum contractions induced by serotonin. The class given is biochemical. As to conditions: for type of antagonism at 5-HT3 receptors: from depression of serotonin maximum; for Kd: functional affinity, double-reciprocal plot, read-out: 5-HT3 receptor pK B ± S.E.M (converted).

Data set [6] in a line: distribution to brain after i.v. and i.p. administration. The class given is in vivo, mice. As to conditions: for Kp: brain and plasma, HBK-14 2.5 mg/kg, HBK-15 1.25 mg/kg, read-out: brain/plasma ratio. The method, then: For pharmacokinetic study, HBK-14 and HBK-15 dissolved in saline were administered by an intravenous (i.v.) and intraperitoneal (i.p.) administration at a dose of 2.5 and 1.25 mg/kg, respectively. Blood samples were collected at 0 min (predose), 5 min, 15 min, 30 min, 60 min, 120 min, and 240 min after compounds administration. The blood and brain samples were collected under general anesthesia induced by i.p. injections of 50 mg/kg ketamine plus 8 mg/kg xylazine. Blood samples were collected into heparinized tubes. The samples were immediately centrifuged at 3500 rpm for 10 min, and plasma was collected. The brain and plasma samples were immediately frozen at −80 °C for further analysis.
The quantification of studied compounds in plasma and brain samples was accomplished using UFLC Nexera system (Shimadzu, Kyoto, Japan) coupled to the triple quadrupole mass spectrometer QTrap 5500 (Sciex, Framingham, MA, USA) equipped with Turbo V™ ion source. After preparation, the samples were injected (5 μL) onto Acquity UPLC BEH C18 (3.0 × 100 mm, 1.7 μm, Waters, Milford, MA, USA) analytical column. The mobile phases that consisted of ACN with 0.1% FA (A) and water with 0.1% FA (B) were delivered in isocratic elution mode (40% A, 60% B) at the flow rate of 550 μL/min. The total time of analysis was 8 min including 2 min of column equilibration.
An amount of 50 μL of sample (plasma or brain homogenate) was transferred into the clean Eppendorf tube and spiked with 5 μL of internal standard solution (IS, 1 μg/mL) obtaining the final concentration of 100 ng/mL. After 5 min of mixing (1500 rpm), proteins were precipitated using 150 μL ACN. After 10 min of samples shaking (1500 rpm), the incubation step was performed (10 min, 4 °C). Next, samples were centrifuged (10,000 rpm, 10 min, 4 °C) and the supernatant was transferred into chromatographic vial for LC/MS/MS analysis.
The brain homogenate was prepared maintaining the tissue: phosphate-buffered saline (PBS) ratio at 1:5. The homogenization was carried out employing IKA® T10 Basic ULTRA-TURRAX disperser (IKA Werke GmbH & Co. KG, Staufen, Germany). After homogenization, all samples were centrifuged (3000 rpm, 10 min, 4 °C) and 50 μL of supernatant was collected for further preparation. All samples were stored on ice during the preparation process.

[7] abbreviates: mouse, other: intravenous and intraperitoneal (both arms), after i.v. and i.p. administration.
Where [8] appears, read: corticosterone 20 mg/kg s.c. 21 days + saline.

The IC50 is the concentration at which inhibition is half-maximal.

As for `CNCCC(Oc1ccc(C(F)(F)F)cc1)c1ccccc1` (stereo not shown) [fluoxetine, reference compound], in data set [1] (10 mg/kg i.p.), the “effect on corticosterone-induced increase in immobility” value is on record as “prevented an increase in immobility”. In addition, in data set [2] (single i.p. in corticosterone-treated mice), the “Number of crossings ± S.E.M” value is on record as 231.9 ± 21.9.
For the compound `COc1ccccc1N1CCN(CCOCCOc2c(C)cccc2C)CC1.Cl` [HBK-14, 1-[(2,6-Dimethylphenoxy)ethoxyethyl]-4-(2-methoxyphenyl)piperazine hydrochloride], the IC50 in data set [3] is 64 nM. For the same compound, the “effect on corticosterone-induced increase in immobility” value in data set [1] (1.25 or 2.5 mg/kg i.p.) is “inactive”. The antihistaminic activity entry in data set [4] was “negligible”. For the same compound, the “type of antagonism at 5-HT3 receptors” value in data set [5] is on record as “non-competitive antagonism”. In data set [5], the Kd was 11.2 nM. For the same compound, the Kp in data set [6] (CD-1, mouse, ip) is 0.46; in data set [6] (CD-1, mouse, iv), 0.8; in data set [6] (setting [7]), less than 1.
Consider `COc1ccccc1N1CCN(CCOCCOc2c(C)cccc2Cl)CC1.Cl` [HBK-15, 1-[(2-chloro-6-methylphenoxy)ethoxyethyl]-4-(2-methoxyphenyl)piperazine hydrochloride], for which the IC50 in data set [3] is 19 nM. For the same compound, the “effect on corticosterone-induced increase in immobility” value in data set [1] (1.25 mg/kg i.p.) is listed as “prevented an increase in immobility”. For the same compound, in data set [4], the antihistaminic activity entry was “negligible”. Besides, in data set [5], the “type of antagonism at 5-HT3 receptors” value was “non-competitive interaction with 5-HT3 receptors”. Moreover, the Kd in data set [5] is 43.6 nM. The Kp is 0.27 in data set [6] (CD-1, mouse, ip); 0.68 in data set [6] (CD-1, mouse, iv); less than 1 in data set [6] (setting [7]). The Tmax in data set [6] (CD-1, mouse, brain, ip, 1.25 mg/kg, read-out: time of maximal concentration in the brain (converted)) was 5 min. Moreover, the “Number of crossings ± S.E.M” value in data set [2] (single 1.25 mg/kg i.p. in corticosterone-treated mice) is 245.3 ± 22.5.
On to `C[C@]12C[C@H](O)[C@H]3[C@@H](CCC4=CC(=O)CC[C@@]43C)[C@@H]1CC[C@@H]2C(=O)CO` [corticosterone], for which the “increase in immobility vs control” value in data set [1] (setting [8]) was 14% and 21%. Further, in data set [2] (setting [8]), the “Number of crossings ± S.E.M” value turned out to be 230.7 ± 15.8.
